Data: ChEMBL document CHEMBL4507288 (2021)

Assays:
[1] = system: Tyrosine-protein kinase ABL1 (Homo sapiens), P00519 [F317L]; conditions: Compound concentration 1000.0 nM
[2] = system: Tyrosine-protein kinase ABL1 (Homo sapiens), P00519 [H396P]; conditions: Compound concentration 1000.0 nM
[3] = system: Tyrosine-protein kinase ABL1 (Homo sapiens), P00519 [T315I]; conditions: Compound concentration 1000.0 nM
[4] = system: Tyrosine-protein kinase ABL1 (Homo sapiens), P00519 [Y253F]; conditions: Compound concentration 1000.0 nM
[5] = biological target: Tyrosine-protein kinase Blk (Homo sapiens) (UniProt P51451); conditions: Compound concentration 1000.0 nM
[6] = biological target: Mitotic checkpoint serine/threonine-protein kinase BUB1 (Homo sapiens) (UniProt O43683); conditions: Compound concentration 1000.0 nM
[7] = biological target: Calcium/calmodulin-dependent protein kinase type 1D (Homo sapiens) (UniProt Q8IU85); conditions: Compound concentration 1000.0 nM
Sequence of Calcium/calmodulin-dependent protein kinase type 1D (Homo sapiens) (Q8IU85 whole entry, looked up): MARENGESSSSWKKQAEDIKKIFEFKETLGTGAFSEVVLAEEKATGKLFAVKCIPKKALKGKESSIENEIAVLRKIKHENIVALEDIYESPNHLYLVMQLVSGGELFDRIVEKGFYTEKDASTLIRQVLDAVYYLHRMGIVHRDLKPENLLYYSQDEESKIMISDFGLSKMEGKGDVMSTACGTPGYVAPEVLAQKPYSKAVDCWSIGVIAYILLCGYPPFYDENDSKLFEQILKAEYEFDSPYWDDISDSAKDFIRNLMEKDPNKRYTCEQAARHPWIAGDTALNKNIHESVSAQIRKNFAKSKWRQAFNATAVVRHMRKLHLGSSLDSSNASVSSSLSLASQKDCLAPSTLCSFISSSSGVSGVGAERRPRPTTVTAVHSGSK

[8] = biological target: Cyclin-dependent kinase 4 (Homo sapiens) (UniProt P11802); conditions: Compound concentration 1000.0 nM
Sequence of Cyclin-dependent kinase 4 (Homo sapiens) (P11802 whole entry): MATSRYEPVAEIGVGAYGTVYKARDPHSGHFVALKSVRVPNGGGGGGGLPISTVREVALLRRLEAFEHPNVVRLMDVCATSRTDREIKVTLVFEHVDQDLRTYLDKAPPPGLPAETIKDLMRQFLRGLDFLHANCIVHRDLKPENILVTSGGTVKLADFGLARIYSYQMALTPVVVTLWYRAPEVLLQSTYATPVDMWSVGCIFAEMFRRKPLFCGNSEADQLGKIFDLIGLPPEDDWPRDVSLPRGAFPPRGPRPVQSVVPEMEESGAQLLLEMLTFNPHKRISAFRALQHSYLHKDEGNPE

[9] = biological target: Cyclin-dependent kinase 4 (Homo sapiens) (UniProt P11802); conditions: Compound concentration 1000.0 nM; remark: listed apart in the source
[10] = biological target: Serine/threonine-protein kinase Chk1 (Homo sapiens) (UniProt O14757); conditions: Compound concentration 1000.0 nM
Sequence of Serine/threonine-protein kinase Chk1 (Homo sapiens) (O14757 whole entry): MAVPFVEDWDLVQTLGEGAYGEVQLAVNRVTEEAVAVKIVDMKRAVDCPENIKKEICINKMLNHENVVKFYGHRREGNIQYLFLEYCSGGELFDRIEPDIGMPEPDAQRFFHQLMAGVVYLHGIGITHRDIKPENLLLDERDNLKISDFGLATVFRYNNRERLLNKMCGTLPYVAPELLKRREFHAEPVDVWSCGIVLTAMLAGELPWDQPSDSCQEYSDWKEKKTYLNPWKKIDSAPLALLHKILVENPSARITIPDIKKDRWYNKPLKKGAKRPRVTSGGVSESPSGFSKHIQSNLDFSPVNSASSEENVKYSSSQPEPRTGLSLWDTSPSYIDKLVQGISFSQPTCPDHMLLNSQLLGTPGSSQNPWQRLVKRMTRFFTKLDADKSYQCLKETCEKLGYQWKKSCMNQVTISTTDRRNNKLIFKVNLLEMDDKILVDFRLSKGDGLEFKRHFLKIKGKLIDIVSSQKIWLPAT

[11] = biological target: Dual specificity protein kinase CLK2 (Homo sapiens) (UniProt P49760); conditions: Compound concentration 1000.0 nM
[12] = biological target: Dual specificity protein kinase CLK3 (Homo sapiens) (UniProt P49761); conditions: Compound concentration 1000.0 nM
[13] = biological target: Casein kinase I isoform alpha-like (Homo sapiens) (UniProt Q8N752); conditions: Compound concentration 1000.0 nM
[14] = biological target: Megakaryocyte-associated tyrosine-protein kinase (Homo sapiens) (UniProt P42679); conditions: Compound concentration 1000.0 nM
[15] = system: Epidermal growth factor receptor (Homo sapiens), P00533 [UNDEFINED MUTATION]; conditions: Compound concentration 1000.0 nM
Sequence of Epidermal growth factor receptor (Homo sapiens), P00533 [UNDEFINED MUTATION] (P00533 whole entry, looked up, change not shown): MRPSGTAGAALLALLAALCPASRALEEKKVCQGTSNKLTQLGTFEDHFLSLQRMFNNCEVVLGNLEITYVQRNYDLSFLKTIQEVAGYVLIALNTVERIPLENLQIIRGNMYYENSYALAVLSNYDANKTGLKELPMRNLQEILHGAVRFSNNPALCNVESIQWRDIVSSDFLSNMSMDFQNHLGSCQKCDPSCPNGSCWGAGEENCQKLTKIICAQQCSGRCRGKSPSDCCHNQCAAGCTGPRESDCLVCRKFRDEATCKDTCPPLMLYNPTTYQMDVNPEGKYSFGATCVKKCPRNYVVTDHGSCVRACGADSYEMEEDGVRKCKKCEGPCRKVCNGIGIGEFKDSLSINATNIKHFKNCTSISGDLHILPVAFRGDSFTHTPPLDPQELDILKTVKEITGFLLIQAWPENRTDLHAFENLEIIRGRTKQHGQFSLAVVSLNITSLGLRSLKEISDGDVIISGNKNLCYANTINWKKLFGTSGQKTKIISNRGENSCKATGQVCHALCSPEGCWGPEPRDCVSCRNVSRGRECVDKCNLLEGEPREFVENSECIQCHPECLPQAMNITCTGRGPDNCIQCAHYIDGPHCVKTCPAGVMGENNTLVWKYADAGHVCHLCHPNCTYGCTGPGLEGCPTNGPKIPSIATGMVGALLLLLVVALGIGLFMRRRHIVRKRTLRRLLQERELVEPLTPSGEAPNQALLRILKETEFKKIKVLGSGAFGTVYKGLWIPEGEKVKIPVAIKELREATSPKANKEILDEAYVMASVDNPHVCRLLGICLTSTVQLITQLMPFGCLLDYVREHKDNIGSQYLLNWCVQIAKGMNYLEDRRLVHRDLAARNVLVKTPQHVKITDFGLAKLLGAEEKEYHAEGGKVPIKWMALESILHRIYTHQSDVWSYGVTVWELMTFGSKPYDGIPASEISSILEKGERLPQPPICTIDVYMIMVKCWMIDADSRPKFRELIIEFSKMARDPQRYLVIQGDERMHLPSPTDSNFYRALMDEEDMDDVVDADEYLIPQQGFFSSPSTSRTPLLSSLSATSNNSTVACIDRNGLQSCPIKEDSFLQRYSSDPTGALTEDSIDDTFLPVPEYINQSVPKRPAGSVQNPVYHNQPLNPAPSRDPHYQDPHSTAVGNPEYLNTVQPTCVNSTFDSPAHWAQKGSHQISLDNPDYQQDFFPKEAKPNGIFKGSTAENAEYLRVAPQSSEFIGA

[16] = biological target: Tyrosine-protein kinase Fer (Homo sapiens) (UniProt P16591); conditions: Compound concentration 1000.0 nM
[17] = biological target: Receptor-type tyrosine-protein kinase FLT3 (Homo sapiens) (UniProt P36888); conditions: Compound concentration 1000.0 nM
[18] = biological target: Tyrosine-protein kinase ITK/TSK (Homo sapiens) (UniProt Q08881); conditions: Compound concentration 1000.0 nM
[19] = biological target: Serine/threonine-protein kinase LATS2 (Homo sapiens) (UniProt Q9NRM7); conditions: Compound concentration 1000.0 nM
[20] = biological target: Tyrosine-protein kinase Lyn (Homo sapiens) (UniProt P07948); conditions: Compound concentration 1000.0 nM
[21] = biological target: Mitogen-activated protein kinase kinase kinase kinase 4 (Homo sapiens) (UniProt O95819); conditions: Compound concentration 1000.0 nM
[22] = biological target: Microtubule-associated serine/threonine-protein kinase 1 (Homo sapiens) (UniProt Q9Y2H9); conditions: Compound concentration 1000.0 nM
[23] = system: Hepatocyte growth factor receptor (Homo sapiens), P08581 [Y1235D]; conditions: Compound concentration 1000.0 nM
[24] = biological target: Mitogen-activated protein kinase kinase kinase 11 (Homo sapiens) (UniProt Q16584); conditions: Compound concentration 1000.0 nM
[25] = biological target: Serine/threonine-protein kinase MRCK alpha (Homo sapiens) (UniProt Q5VT25); conditions: Compound concentration 1000.0 nM
[26] = biological target: Serine/threonine-protein kinase 24 (Homo sapiens) (UniProt Q9Y6E0); conditions: Compound concentration 1000.0 nM
[27] = biological target: Serine/threonine-protein kinase PAK 4 (Homo sapiens) (UniProt O96013); conditions: Compound concentration 1000.0 nM
[28] = system: Phosphatidylinositol 4,5-bisphosphate 3-kinase catalytic subunit alpha isoform (Homo sapiens), P42336 [E545A]; conditions: Compound concentration 1000.0 nM
Sequence of Phosphatidylinositol 4,5-bisphosphate 3-kinase catalytic subunit alpha isoform (Homo sapiens), P42336 [E545A] (P42336 whole entry E545A, canonical isoform): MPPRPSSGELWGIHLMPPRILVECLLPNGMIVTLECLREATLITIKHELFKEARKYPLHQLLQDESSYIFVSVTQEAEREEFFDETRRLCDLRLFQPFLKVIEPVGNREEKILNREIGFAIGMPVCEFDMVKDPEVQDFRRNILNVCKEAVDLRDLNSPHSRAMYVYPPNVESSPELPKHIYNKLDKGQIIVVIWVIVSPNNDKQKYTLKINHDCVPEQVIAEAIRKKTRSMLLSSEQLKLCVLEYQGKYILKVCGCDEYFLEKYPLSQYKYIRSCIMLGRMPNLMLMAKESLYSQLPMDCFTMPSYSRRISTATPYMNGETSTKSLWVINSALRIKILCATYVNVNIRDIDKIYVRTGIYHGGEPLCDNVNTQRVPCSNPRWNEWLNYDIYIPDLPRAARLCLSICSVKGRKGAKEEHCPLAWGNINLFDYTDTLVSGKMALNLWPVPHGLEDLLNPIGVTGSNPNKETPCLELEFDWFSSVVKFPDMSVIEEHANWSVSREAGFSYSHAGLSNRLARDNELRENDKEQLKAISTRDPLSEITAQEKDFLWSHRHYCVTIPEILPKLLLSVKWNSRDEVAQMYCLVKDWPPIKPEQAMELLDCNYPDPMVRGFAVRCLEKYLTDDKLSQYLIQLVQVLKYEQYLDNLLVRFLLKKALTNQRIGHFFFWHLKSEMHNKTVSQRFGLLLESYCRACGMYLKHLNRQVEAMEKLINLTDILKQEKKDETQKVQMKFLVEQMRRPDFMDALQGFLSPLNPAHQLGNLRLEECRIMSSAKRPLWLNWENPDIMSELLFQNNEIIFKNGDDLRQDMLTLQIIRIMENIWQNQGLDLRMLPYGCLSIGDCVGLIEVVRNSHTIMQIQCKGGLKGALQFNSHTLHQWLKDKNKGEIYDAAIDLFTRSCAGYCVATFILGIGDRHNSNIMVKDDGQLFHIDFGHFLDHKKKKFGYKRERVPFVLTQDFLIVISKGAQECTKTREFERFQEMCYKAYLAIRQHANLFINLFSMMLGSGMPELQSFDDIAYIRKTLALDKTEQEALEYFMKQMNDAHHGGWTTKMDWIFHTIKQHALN

[29] = system: Phosphatidylinositol 4,5-bisphosphate 3-kinase catalytic subunit alpha isoform (Homo sapiens), P42336 [E545K]; conditions: Compound concentration 1000.0 nM
[30] = system: Phosphatidylinositol 4,5-bisphosphate 3-kinase catalytic subunit alpha isoform (Homo sapiens), P42336 [H1047L]; conditions: Compound concentration 1000.0 nM
[31] = system: Phosphatidylinositol 4,5-bisphosphate 3-kinase catalytic subunit alpha isoform (Homo sapiens), P42336 [M1043I]; conditions: Compound concentration 1000.0 nM
[32] = biological target: Protein kinase C theta type (Homo sapiens) (UniProt Q04759); conditions: Compound concentration 1000.0 nM
[33] = biological target: cGMP-dependent protein kinase 1 (Homo sapiens) (UniProt Q13976); conditions: Compound concentration 1000.0 nM
[34] = biological target: Ribosomal protein S6 kinase alpha-5 (Homo sapiens) (UniProt O75582); conditions: Compound concentration 1000.0 nM
[35] = biological target: Uncharacterized serine/threonine-protein kinase SBK3 (Homo sapiens) (UniProt P0C264); conditions: Compound concentration 1000.0 nM
Sequence of Uncharacterized serine/threonine-protein kinase SBK3 (Homo sapiens) (P0C264 whole entry): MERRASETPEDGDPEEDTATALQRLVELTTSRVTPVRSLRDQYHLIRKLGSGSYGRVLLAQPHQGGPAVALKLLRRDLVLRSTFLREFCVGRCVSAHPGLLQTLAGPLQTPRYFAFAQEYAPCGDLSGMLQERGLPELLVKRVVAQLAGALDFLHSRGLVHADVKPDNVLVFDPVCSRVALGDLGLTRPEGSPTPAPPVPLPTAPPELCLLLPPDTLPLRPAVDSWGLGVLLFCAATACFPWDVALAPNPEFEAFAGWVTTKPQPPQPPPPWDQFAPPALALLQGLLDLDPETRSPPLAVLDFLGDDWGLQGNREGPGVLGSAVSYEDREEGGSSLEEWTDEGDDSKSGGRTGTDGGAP

[36] = biological target: STE20-like serine/threonine-protein kinase (Homo sapiens) (UniProt Q9H2G2); conditions: Compound concentration 1000.0 nM
[37] = biological target: Tyrosine-protein kinase Tec (Homo sapiens) (UniProt P42680); conditions: Compound concentration 1000.0 nM
[38] = biological target: Tyrosine-protein kinase receptor Tie-1 (Homo sapiens) (UniProt P35590); conditions: Compound concentration 1000.0 nM
[39] = biological target: Serine/threonine-protein kinase ULK2 (Homo sapiens) (UniProt Q8IYT8); conditions: Compound concentration 1000.0 nM
[40] = biological target: Serine/threonine-protein kinase VRK2 (Homo sapiens) (UniProt Q86Y07); conditions: Compound concentration 1000.0 nM
Sequence of Serine/threonine-protein kinase VRK2 (Homo sapiens) (Q86Y07 whole entry): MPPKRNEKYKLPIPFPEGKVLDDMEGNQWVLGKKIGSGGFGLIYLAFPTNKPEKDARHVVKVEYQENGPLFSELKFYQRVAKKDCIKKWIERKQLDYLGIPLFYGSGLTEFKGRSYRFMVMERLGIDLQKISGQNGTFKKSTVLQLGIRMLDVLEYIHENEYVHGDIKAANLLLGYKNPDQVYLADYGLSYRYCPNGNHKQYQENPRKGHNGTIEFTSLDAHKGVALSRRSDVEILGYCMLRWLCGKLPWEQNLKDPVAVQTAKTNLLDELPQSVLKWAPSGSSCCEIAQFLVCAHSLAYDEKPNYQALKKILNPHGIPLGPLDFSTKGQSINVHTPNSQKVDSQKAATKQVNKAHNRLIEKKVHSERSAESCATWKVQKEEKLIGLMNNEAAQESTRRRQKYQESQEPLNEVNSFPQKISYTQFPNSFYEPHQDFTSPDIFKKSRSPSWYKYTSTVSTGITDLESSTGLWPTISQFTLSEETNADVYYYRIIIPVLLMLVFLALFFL

[41] = biological target: Beta-2 adrenergic receptor (Homo sapiens) (UniProt P07550); conditions: Compound concentration 10.0 uM
[42] = biological target: Sodium-dependent dopamine transporter (Homo sapiens, UniProt Q01959); experiment: GPCRScan assay: inhibition of DAT; design: radioligand conc. used [nm] 3.6 – 16.0, parental cells stable HEK
Sequence of Sodium-dependent dopamine transporter (Q01959 whole entry): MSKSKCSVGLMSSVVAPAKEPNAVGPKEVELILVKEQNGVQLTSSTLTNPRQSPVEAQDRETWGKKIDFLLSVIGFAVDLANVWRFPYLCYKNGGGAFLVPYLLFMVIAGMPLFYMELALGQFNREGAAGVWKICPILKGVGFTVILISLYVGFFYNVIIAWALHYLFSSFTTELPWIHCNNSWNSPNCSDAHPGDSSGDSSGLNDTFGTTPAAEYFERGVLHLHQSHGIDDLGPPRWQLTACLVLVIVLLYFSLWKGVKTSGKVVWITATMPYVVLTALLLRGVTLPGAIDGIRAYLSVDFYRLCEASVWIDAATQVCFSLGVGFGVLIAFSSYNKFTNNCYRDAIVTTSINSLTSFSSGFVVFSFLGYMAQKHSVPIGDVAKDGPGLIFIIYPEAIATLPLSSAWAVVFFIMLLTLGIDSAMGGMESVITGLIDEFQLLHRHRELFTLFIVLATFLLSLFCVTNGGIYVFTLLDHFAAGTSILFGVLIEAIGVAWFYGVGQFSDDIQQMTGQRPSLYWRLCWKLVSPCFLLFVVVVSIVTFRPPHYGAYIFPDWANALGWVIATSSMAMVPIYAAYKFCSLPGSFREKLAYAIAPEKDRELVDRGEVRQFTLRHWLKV

[43] = biological target: GABA-A receptor; anion channel (Rattus norvegicus) (UniProt O09028+P15431+P18506+P18508+P19969+P20236+P23574+P23576+P28471+P28473+P30191+P62813+P63079+P63138+Q91ZM7+Q9ES14); conditions: Compound concentration 10.0 uM

O=S(=O)(NC1CCC(c2cc(F)ccc2F)(S(=O)(=O)c2ccc(Cl)cc2)CC1)C(F)(F)F (centres undefined) [MRK-560]
inactive: residual activity [1] 90% | residual activity [2] 100% | residual activity [3] 90% | residual activity [4] 100% | residual activity [5] 89% | residual activity [6] 100% | residual activity [7] 79% | residual activity [8] 100% | residual activity [9] 91% | residual activity [10] 100% | residual activity [11] 100% | residual activity [12] 86% | residual activity [13] 100% | residual activity [14] 100% | residual activity [16] 100% | residual activity [17] 100% | residual activity [18] 97% | residual activity [20] 91% | residual activity [21] 71% | residual activity [22] 100% | residual activity [23] 97% | residual activity [24] 100% | residual activity [25] 91% | residual activity [26] 99% | residual activity [27] 100% | residual activity [28] 95% | residual activity [29] 77% | residual activity [31] 100% | residual activity [32] 100% | residual activity [33] 100% | residual activity [34] 71% | residual activity [35] 93% | residual activity [36] 100% | residual activity [37] 100% | residual activity [38] 100% | residual activity [39] 100% | residual activity [40] 100% | inhibition [41] 9.91%
active: residual activity [15] 0% | residual activity [19] 0% | residual activity [30] 41%

CC(C)(C)OC(=O)N1CCCC1CNC1CCC(c2cc(F)ccc2F)(S(=O)(=O)c2ccc(Cl)cc2)CC1 (centres undefined) [GSI-NC]
5: pKi [42]
inactive: inhibition [43] 11%
10 µM: Ki [42]
